Experimental data from patent US20210403866A1, “ENHANCED DENDRITIC CELL IMMUNE ACTIVATION BY COMBINED INHIBITION OF NR2F6 WITH CANNIBIDIOL” (Regen Biopharma, Inc., priority 2019, published 2021).

How the values were obtained:
WT1 mRNA [1] = settings: GEM-treated MIAPaCa2-bearing SCID mice; cited from earlier work
WT1 mRNA [2] = settings: human MIAPaCa2 PC cells; cited from earlier work
WT1 mRNA [3] = settings: mWT1-C1498, compared with DAC treatment; cited from earlier work
[4] = test system: murine WT1-transfected C1498 (mWT1-C1498); settings: increasing doses; cited from earlier work
allogeneic T cells [5] = assay: Mixed Lymphocyte Reaction with dendritic cells silenced for NR2F6; format: cell-based; settings: increased amounts of cannabidiol added to dendritic cells silenced for NR2F6; FIG. 2
Procedure: (§1) Dendritic cells where added to allogeneic T cells in 96 well plates, wherein allogeneic T cells where added at 40,000 cells per plate and the indicated number of dendritic cells added. Culture was performed for 96 hours with tritiated thymidine added at the last 12 hours of culture at a concentration of 1 microcurie per well. Black bars indicate no cannabidiol added to dendritic cells, striped bars indicate 1 micro Molar and white indicate 2 micromolar. […] Results are shown in graph, FIG. 1.
MLR was performed as in example 1. All cells where silenced for NR2F6. An increase in allostimulatory activity was observed. Results are shown in graph, FIG. 2.

allogeneic T cells [6] = assay: Mixed Lymphocyte Reaction, dendritic cells added to allogeneic T cells, tritiated thymidine; format: cell-based; settings: cannabidiol 1 and 2 micromolar added to dendritic cells; 40,000 allogeneic T cells; 96 hours culture; FIG. 1
Procedure: as §1

SMILES: Nc1ccn([C@@H]2O[C@H](CO)[C@@H](O)C2(F)F)c(=O)n1 [GEM, gemcitabine]
- WT1 mRNA in tumor tissue (WT1 mRNA [1]): increase in WT1 mRNA
- WT1 mRNA levels (WT1 mRNA [2]): enhanced WT1 mRNA levels

SMILES: Nc1ncn([C@@H]2O[C@H](CO)[C@@H](O)[C@H]2O)c(=O)n1 [AZA, azacitidine]
- up-regulation of WT1 mRNA (WT1 mRNA [3]): induced up-regulation of mRNA, but not to the same degree as with DAC treatment
- number of viable cells [4]: decreased the number of viable cells in a dose- or time-dependent manner

SMILES: C=C(C)[C@@H]1CCC(C)=C[C@H]1c1c(O)cc(CCCCC)cc1O [cannabidiol]
- allostimulatory activity in MLR (allogeneic T cells [5]): dose dependent increase in allostimulatory activity
- T cell activation in Mixed Lymphocyte Reaction (allogeneic T cells [6]): dose dependent suppression of T cell activation
